These results are taken from the NIST ThermoML archive (doi:10.1016/j.jct.2008.07.024).

Structures are written as SMILES. Where “and” joins values, the source holds several entries; their conditions need not be identical. Identical values can stand only once. Numbers after ± are expanded uncertainties.

For this data set the following is noted: Liquid, Closed cell (Static) method.

In general, vapor or sublimation pressure refers to the pressure of vapour in equilibrium with the condensed phase.

In the case of `CCCOCCO` [2-propoxyethanol], the “vapor or sublimation pressure” value is, setting by setting: (303.15 K) 0.45 ± 0.02 kPa; (313.15 K) 0.87 ± 0.02 kPa and 0.89 ± 0.02 kPa; (323.15 K) 1.59 ± 0.02 kPa and 1.61 ± 0.02 kPa.
Turning to `CCCCCC` [hexane], the “vapor or sublimation pressure” value (303.15 K) turned out to be 25.16 ± 0.05 kPa, the “vapor or sublimation pressure” value (313.15 K) was found to be 37.42 ± 0.07 kPa and the “vapor or sublimation pressure” value (323.15 K) amounted to 54.11 ± 0.1 kPa.
On the same counts, the results for `CCCCCCC` [heptane] are 7.92 ± 0.03 kPa, 12.24 ± 0.03 kPa and 18.91 ± 0.04 kPa.
